Data as given in publication PMC4774911, “Biochemical Screening of Five Protein Kinases from Plasmodium falciparum against 14,000 Cell-Active Compounds” (PLoS ONE, 2016).
Where “and” joins values, the source holds several entries; their conditions need not be identical. Equal values may be shown once.

Tests used:
Experiment in all cases: biochemical
Set-up in all cases: endogenous in cells; host or cells: K562 cell extract; species or system K562 (extract); replicate k of n = 2 (each experiment ID is one independent experiment; two experiment IDs per compound)
Details in all cases: read-out: KDapp
[1] = biological target: T1, PDPK1 (Homo sapiens, UniProt O15530)
T1 sequence (O15530 1-556): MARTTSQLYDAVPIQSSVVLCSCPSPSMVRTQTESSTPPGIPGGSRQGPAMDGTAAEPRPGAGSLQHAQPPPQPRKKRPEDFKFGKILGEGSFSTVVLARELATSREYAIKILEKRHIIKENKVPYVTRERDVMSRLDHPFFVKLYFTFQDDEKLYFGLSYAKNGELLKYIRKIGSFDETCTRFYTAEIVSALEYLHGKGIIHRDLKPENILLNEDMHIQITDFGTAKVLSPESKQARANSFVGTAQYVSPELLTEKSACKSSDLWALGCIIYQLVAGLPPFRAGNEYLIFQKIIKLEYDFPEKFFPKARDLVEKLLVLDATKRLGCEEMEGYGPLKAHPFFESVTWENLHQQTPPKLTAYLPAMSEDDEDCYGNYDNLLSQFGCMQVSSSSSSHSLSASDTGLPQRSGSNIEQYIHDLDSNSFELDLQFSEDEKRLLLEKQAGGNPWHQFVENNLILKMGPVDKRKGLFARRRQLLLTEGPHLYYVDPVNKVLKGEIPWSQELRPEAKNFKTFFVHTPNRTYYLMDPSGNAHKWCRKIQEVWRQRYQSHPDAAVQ

[2] = biological target: RPS6KA1 (Homo sapiens, UniProt Q15418)
[3] = biological target: CDC2 (Homo sapiens, UniProt P06493)
[4] = biological target: OXSR1 (Homo sapiens, UniProt O95747)
[5] = biological target: T2, NEK9 (Homo sapiens, UniProt Q8TD19)
T2 sequence (Q8TD19 1-979): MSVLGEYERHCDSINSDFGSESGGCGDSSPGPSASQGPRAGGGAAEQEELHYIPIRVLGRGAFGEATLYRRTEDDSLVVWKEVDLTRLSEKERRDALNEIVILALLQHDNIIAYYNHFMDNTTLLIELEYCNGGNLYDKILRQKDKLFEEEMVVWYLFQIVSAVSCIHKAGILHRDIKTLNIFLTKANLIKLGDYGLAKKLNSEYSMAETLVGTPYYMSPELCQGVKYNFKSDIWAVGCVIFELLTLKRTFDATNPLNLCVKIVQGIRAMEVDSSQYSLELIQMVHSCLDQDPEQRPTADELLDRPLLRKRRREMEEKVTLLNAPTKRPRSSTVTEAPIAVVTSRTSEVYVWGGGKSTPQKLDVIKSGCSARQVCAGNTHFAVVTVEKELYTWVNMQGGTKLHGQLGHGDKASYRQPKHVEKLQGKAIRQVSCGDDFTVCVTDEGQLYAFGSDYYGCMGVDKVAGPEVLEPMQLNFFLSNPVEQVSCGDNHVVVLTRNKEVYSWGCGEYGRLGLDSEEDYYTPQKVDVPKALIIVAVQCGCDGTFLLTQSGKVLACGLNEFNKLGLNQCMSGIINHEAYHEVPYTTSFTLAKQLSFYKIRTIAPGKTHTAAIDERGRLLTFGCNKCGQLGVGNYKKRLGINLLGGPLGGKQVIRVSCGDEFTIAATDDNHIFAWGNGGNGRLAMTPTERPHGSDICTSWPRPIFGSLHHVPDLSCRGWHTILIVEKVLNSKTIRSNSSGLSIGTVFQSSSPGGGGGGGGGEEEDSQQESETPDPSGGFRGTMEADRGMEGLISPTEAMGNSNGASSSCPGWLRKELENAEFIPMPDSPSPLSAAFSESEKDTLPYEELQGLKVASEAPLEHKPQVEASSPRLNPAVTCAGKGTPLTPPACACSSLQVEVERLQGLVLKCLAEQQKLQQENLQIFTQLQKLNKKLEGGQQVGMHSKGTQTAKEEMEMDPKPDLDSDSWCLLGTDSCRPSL

[6] = biological target: MAST3 (Homo sapiens, UniProt O60307)
[7] = biological target: NTRK1 (Homo sapiens, UniProt P04629)
NTRK1, sequence (P04629 whole entry): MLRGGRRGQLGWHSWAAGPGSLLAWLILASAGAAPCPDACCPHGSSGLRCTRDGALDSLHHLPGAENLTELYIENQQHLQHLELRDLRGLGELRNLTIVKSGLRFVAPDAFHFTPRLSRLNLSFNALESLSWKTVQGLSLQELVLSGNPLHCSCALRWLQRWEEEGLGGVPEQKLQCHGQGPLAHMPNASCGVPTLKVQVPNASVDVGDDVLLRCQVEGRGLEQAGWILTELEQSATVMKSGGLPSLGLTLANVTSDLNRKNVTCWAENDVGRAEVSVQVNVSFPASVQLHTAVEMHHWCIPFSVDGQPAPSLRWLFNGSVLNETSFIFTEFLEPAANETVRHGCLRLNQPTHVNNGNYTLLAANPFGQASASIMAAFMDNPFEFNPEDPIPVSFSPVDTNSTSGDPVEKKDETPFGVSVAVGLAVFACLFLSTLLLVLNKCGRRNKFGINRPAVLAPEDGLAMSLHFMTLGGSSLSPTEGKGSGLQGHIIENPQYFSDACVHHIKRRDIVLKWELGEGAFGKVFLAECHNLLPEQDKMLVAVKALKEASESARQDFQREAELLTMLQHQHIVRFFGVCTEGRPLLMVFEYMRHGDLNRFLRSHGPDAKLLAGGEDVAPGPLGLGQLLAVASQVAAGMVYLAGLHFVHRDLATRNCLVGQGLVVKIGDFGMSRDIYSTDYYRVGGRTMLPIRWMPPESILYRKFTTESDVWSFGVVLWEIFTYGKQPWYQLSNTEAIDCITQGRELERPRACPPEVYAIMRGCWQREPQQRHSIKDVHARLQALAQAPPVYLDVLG

OXSR1, sequence (O95747 whole entry): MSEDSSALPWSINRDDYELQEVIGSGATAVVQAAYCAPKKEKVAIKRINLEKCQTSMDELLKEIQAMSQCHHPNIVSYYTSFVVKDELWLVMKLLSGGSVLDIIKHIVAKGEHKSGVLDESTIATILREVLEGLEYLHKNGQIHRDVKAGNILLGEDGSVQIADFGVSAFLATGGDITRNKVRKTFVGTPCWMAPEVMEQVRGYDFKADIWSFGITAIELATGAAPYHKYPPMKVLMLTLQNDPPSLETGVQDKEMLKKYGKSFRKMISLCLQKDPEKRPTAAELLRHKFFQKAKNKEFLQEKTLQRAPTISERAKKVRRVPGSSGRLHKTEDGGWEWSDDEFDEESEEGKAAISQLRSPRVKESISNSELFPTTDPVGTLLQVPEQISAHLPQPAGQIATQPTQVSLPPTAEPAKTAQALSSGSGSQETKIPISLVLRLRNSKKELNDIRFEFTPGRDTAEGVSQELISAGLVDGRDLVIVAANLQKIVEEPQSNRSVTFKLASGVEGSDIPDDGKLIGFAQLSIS
RPS6KA1, sequence (Q15418 whole entry): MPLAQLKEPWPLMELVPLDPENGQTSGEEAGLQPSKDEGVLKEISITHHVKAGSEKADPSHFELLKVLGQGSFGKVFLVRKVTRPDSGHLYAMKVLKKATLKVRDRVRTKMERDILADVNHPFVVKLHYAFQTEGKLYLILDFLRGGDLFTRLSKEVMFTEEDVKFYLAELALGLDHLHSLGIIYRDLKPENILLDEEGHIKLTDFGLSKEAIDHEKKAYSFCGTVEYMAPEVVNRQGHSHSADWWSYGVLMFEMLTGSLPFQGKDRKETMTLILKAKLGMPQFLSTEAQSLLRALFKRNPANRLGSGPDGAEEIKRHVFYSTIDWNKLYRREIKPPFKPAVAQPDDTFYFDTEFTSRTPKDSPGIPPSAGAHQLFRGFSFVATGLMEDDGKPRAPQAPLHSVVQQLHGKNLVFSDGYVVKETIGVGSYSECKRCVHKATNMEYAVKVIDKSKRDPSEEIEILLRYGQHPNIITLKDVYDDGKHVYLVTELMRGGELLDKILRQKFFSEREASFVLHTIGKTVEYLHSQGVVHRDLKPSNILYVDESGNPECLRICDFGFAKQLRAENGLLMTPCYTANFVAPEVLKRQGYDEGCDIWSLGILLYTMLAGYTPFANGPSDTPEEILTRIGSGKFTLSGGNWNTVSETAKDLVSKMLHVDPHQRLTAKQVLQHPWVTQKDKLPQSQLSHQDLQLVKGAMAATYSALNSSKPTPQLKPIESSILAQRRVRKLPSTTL
CDC2, sequence (P06493 whole entry): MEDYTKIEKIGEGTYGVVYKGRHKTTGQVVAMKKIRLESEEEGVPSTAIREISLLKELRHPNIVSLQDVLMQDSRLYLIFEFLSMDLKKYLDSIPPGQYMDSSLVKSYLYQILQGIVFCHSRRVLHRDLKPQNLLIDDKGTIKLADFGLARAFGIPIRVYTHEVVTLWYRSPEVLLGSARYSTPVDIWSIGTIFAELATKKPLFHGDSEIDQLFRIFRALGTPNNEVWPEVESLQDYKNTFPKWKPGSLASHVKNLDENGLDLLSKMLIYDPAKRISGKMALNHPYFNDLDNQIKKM
MAST3, sequence (O60307 whole entry): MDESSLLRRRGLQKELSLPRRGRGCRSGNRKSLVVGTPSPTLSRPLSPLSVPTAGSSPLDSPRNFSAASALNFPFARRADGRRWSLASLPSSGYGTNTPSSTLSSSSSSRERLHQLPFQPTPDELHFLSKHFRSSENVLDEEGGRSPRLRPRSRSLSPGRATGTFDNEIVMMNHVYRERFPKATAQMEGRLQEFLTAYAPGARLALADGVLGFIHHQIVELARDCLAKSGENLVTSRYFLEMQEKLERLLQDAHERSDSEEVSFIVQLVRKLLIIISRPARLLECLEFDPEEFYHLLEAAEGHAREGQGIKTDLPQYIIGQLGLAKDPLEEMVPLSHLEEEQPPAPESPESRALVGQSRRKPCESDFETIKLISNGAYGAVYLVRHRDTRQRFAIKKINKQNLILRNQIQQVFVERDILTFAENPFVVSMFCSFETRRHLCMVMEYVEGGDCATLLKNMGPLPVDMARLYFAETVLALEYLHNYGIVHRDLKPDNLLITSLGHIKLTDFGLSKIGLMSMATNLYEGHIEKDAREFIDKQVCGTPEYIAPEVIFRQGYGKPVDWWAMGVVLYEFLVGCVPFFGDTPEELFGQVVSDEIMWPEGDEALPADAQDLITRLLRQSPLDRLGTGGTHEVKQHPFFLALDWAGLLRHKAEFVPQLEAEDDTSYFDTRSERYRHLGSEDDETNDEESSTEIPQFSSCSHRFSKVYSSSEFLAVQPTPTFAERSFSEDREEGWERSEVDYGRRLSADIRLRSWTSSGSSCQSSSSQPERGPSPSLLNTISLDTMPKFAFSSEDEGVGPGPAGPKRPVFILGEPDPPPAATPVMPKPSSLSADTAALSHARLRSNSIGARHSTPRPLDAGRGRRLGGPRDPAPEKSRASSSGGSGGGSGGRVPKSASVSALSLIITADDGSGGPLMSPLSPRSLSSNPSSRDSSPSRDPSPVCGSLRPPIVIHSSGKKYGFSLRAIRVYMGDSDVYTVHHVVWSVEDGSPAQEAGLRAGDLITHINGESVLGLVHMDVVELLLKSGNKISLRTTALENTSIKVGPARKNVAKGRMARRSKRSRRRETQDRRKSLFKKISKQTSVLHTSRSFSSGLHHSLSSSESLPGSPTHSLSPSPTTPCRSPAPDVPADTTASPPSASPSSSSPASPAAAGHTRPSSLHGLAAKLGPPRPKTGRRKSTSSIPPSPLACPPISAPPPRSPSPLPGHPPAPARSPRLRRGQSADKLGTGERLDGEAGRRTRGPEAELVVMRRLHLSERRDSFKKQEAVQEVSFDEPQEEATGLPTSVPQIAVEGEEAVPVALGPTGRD

**Q.** With `CN1CCN(c2ccc(Nc3ncc(C#N)c(Nc4ccccc4C(N)=O)n3)cc2)CC1.Cl` [TCMDC-134116] as the compound, how does the Kd [1] read?
**A.** Its Kd is 605 nM and 503 nM.

**Q.** What about the Kd [2] of the same compound?
**A.** Its Kd is 96 nM.

**Q.** What about the Kd [3] of the same compound?
**A.** Its Kd is 1210 nM.

**Q.** And the Kd [4]?
**A.** The Kd was 73 nM and 117 nM.

**Q.** And the Kd [5]?
**A.** Its Kd is 396 nM and 299 nM.

**Q.** And the Kd [6]?
**A.** The Kd was 73.1 nM.

**Q.** What about the Kd [7] of the same compound?
**A.** Its Kd is 1030 nM and 701 nM.
